Experimental data reported in patent US20250171392A1, “CRYSTALLIZATION OF 4-HYDROXYACETOPHENONE FROM ETHANOL AND ETHYL ACETATE” (SYMRISE AG, priority 2022, published 2025).

Legend:
Aspergillus brasiliensis = conditions: when used in cosmetics; Daily Chemical Industry: 2015, 45:269; cited from earlier work
Pseudomonas aeruginosa = conditions: when used in cosmetics; Daily Chemical Industry: 2015, 45:269; cited from earlier work
[1] = Solubility testing (dissolution time) of purified 4-hydroxyacetophenone (0.5 wt.-%) in cold 1,2-pentanediol (3 wt.-%) and glycerin (5 wt.-%) in water; assay type: physicochemical; conditions: for Time needed until purified 4-HAP is fully dissolved: 0.5 wt.-% 4-HAP, 3 wt.-% 1,2-pentanediol, 5 wt.-% glycerin (99.5%), 91.50 wt.-% water, solvent at 17.5-18.5° C., stirred at 500 rpm at 20-21° C.
[2] = Solubility testing (dissolution time) of purified 4-hydroxyacetophenone (0.5 wt.-%) in cold 1,2-pentanediol (5 wt.-%) in water; assay type: physicochemical; conditions: for Time needed until purified 4-HAP is fully dissolved: 0.5 wt.-% 4-HAP, 5 wt.-% 1,2-pentanediol, 94.50 wt.-% water, solvent at 17.5-18.5° C., stirred at 500 rpm at 20-21° C.
[3] = Solubility testing (dissolution time) of purified 4-hydroxyacetophenone (0.5 wt.-%) in cold water; assay type: physicochemical; conditions: for Time needed until purified 4-HAP is fully dissolved: 0.5 wt.-% 4-HAP, 99.50 wt.-% water, solvent at 17.5-18.5° C., stirred at 500 rpm at 20-21° C.

SMILES	ability to kill Aspergillus brasiliensis (Aspergillus brasiliensis)	ability to restrain Pseudomonas aeruginosa (Pseudomonas aeruginosa)	Time needed until purified 4-HAP is fully dissolved [1]	dissolution time in cold 1,2-pentanediol (3 wt.-%) and glycerin (5 wt.-%) in water (in words, compared with the other samples) [1]	Time needed until purified 4-HAP is fully dissolved [2]	dissolution time in cold 1,2-pentanediol (5 wt.-%) in water (in words, compared with the other samples) ([2]; cold 1,2-pentanediol (5 wt.-%) in water)	Time needed until purified 4-HAP is fully dissolved [3]	dissolution time in cold water (in words, compared with the other samples) [3]
CC(=O)c1ccc(O)cc1 [4-hydroxyacetophenone]	great ability to kill	a certain ability to restrain	–	–	–	–	–	–
CC(=O)c1ccc(O)cc1 [Example 1a, 4-hydroxyacetophenone]	–	–	15 min	by far the shortest dissolution time	12 min	by far the shortest dissolution time	24 min	by far the shortest dissolution time
CC(=O)c1ccc(O)cc1 [Example 1b, 4-hydroxyacetophenone]	–	–	19 min	by far the shortest dissolution time	–	–	22 min	by far the shortest dissolution time
CC(=O)c1ccc(O)cc1 [Example 2, 4-hydroxyacetophenone]	–	–	53 min	–	56 min	–	115 min	–
CC(=O)c1ccc(O)cc1 [Example 3, 4-hydroxyacetophenone]	–	–	30 min	–	22 min	–	35 min	–
CC(=O)c1ccc(O)cc1 [Example 4, 4-hydroxyacetophenone]	–	–	24 min	–	33 min	–	41 min	–
CC(=O)c1ccc(O)cc1 [Example 5, 4-hydroxyacetophenone]	–	–	22 min	–	26 min	–	35 min	–
CC(=O)c1ccc(O)cc1 [Example 6, 4-hydroxyacetophenone]	–	–	28 min	–	35 min	–	–	–
CC(=O)c1ccc(O)cc1 [Example 7, 4-hydroxyacetophenone]	–	–	33 min	–	36 min	–	51 min	–
CC(=O)c1ccc(O)cc1 [Example 8, 4-hydroxyacetophenone]	–	–	27 min	–	29 min	–	44 min	–
CC(=O)c1ccc(O)cc1 [Example 9, 4-hydroxyacetophenone]	–	–	21 min	–	17 min	–	29 min	–
CC(=O)c1ccc(O)cc1 [Example 10, 4-hydroxyacetophenone]	–	–	42 min	–	–	–	67 min	–
